# Experimental data as given in PubChem BioAssay AID298 (DTP/NCI, 2004).
# Several values for one entry are separate records, joined by “and”; a condition that tells them apart may be missing. Equal entries are not always repeated. Results filed as inconclusive are left out.
# Test system: MX-1 breast xenograft, intrarenal, nude mice, tumor weight
# Assay: NCI In Vivo Anticancer Drug Screen. Data for tumor model Human Mammary Carcinoma MX-1 Xenograft (intrarenal inoculation) in NU/NU BALB/C (nude) mice
# Conditions: endpoint: mean tumor weight change, higher = larger tumour
# In short: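 T/C readout: treated-group measurement over vehicle-control measurement, using tumor size or survival in tumor-bearing mice.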
# [1] = dose: 50.0 mg/kg/injection, schedule: Q04DX003 (ip), vehicle: saline with Tween-80
# [2] = dose: 37.5 mg/kg/injection, schedule: Q04DX003 (sc), vehicle: saline with Tween-80
# [3] = dose: 75.0 mg/kg/injection, schedule: Q04DX003 (sc), vehicle: saline with Tween-80
structure (smiles),measurement,setting,value
N[C@@H](Cc1ccc(N(CCCl)CCCl)cc1)C(=O)O,T/C,"dose: 1.0 mg/kg/injection, schedule: Q01DX010 (sc), vehicle: saline",1 % of control and 3 % of control
same,T/C,"dose: 1.0 mg/kg/injection, schedule: Q04DX003 (sc), vehicle: saline",88 % of control
same,T/C,"dose: 1.5 mg/kg/injection, schedule: Q04DX003 (sc), vehicle: saline",49 % of control
same,T/C,"dose: 2.0 mg/kg/injection, schedule: Q01DX010 (sc), vehicle: saline",-85 % of control and -79 % of control
same,T/C,"dose: 2.0 mg/kg/injection, schedule: Q04DX003 (ip), vehicle: saline with Tween-80",-48 % of control and -38 % of control
same,T/C,"dose: 2.0 mg/kg/injection, schedule: Q04DX003 (sc), vehicle: saline",17 % of control
same,T/C,"dose: 3.0 mg/kg/injection, schedule: Q04DX003 (sc), vehicle: saline",3 % of control
same,T/C,"dose: 4.0 mg/kg/injection, schedule: Q01DX010 (sc), vehicle: saline",-92 % of control and -70 % of control
same,T/C,"dose: 4.0 mg/kg/injection, schedule: Q04DX003 (ip), vehicle: saline with Tween-80",-94 % of control and -93 % of control
same,T/C,"dose: 4.0 mg/kg/injection, schedule: Q04DX003 (sc), vehicle: saline",-9 % of control
same,T/C,"dose: 6.0 mg/kg/injection, schedule: Q04DX003 (sc), vehicle: saline",-87 % of control
same,T/C,"dose: 8.0 mg/kg/injection, schedule: Q01DX010 (sc), vehicle: saline",-87 % of control
same,T/C,"dose: 8.0 mg/kg/injection, schedule: Q04DX003 (ip), vehicle: saline with Tween-80",-100 % of control and -99 % of control
same,T/C,"dose: 8.0 mg/kg/injection, schedule: Q04DX003 (sc), vehicle: saline",-89 % of control
same,T/C,"dose: 12.0 mg/kg/injection, schedule: Q04DX003 (sc), vehicle: saline",-96 % of control
O=C(Nc1ccccc1)c1c(O)[nH]c(=S)[nH]c1=O,T/C,[1],85 % of control
same,T/C,"dose: 75.0 mg/kg/injection, schedule: Q04DX003 (ip), vehicle: saline with Tween-80",98 % of control
same,T/C,"dose: 100.0 mg/kg/injection, schedule: Q04DX003 (ip), vehicle: saline with Tween-80",108 % of control
Nc1ccn(C2OC(CO)C(O)C2O)c(=O)n1 (stereo not given),T/C,"dose: 500.0 mg/kg/injection, schedule: Q04DX003 (sc), vehicle: saline",57 % of control
same,T/C,"dose: 1000.0 mg/kg/injection, schedule: Q04DX003 (sc), vehicle: saline",68 % of control
C[n+]1ccc2cc(N)c3c4ccccc4sc3c2c1,T/C,"dose: 12.5 mg/kg/injection, schedule: Q04DX003 (sc), vehicle: saline with Tween-80",96 % of control
same,T/C,"dose: 25.0 mg/kg/injection, schedule: Q04DX003 (sc), vehicle: saline with Tween-80",100 % of control
Cc1ccc(S(=O)(=O)NC(=O)C2C(=O)CC3(CCCCC3)CC2=O)cc1,T/C,"dose: 300.0 mg/kg/injection, schedule: Q04DX003 (sc), vehicle: Klucel (hydroxypropylcellulose) (HPC)",81 % of control
same,T/C,"dose: 600.0 mg/kg/injection, schedule: Q04DX003 (sc), vehicle: Klucel (hydroxypropylcellulose) (HPC)",95 % of control
same,T/C,"dose: 1200.0 mg/kg/injection, schedule: Q04DX003 (sc), vehicle: Klucel (hydroxypropylcellulose) (HPC)",121 % of control
same,T/C,"dose: 2400.0 mg/kg/injection, schedule: Q04DX003 (sc), vehicle: Klucel (hydroxypropylcellulose) (HPC)",117 % of control
Cc1cnc(/C=N\NC(N)=S)c2cccc(N)c12,T/C,"dose: 125.0 mg/kg/injection, schedule: Q04DX003 (ip), vehicle: saline with Tween-80",31 % of control
S=C1CCCCN1,T/C,"dose: 150.0 mg/kg/injection, schedule: Q04DX003 (ip), vehicle: distilled water + Tween-80 + alcohol",82 % of control
same,T/C,"dose: 300.0 mg/kg/injection, schedule: Q04DX003 (ip), vehicle: distilled water + Tween-80 + alcohol",72 % of control
CCOC1=Cc2c(oc3c(C(C)(C)C)cc(OCC)cc23)OC(C(C)(C)C)=C1,T/C,[2],94 % of control
same,T/C,[3],98 % of control
same,T/C,"dose: 150.0 mg/kg/injection, schedule: Q04DX003 (sc), vehicle: saline with Tween-80",121 % of control
same,T/C,"dose: 300.0 mg/kg/injection, schedule: Q04DX003 (sc), vehicle: saline with Tween-80",92 % of control and 111 % of control
same,T/C,"dose: 600.0 mg/kg/injection, schedule: Q04DX003 (sc), vehicle: saline with Tween-80",77 % of control
same,T/C,"dose: 2400.0 mg/kg/injection, schedule: Q04DX003 (sc), vehicle: saline with Tween-80",73 % of control
CO[C@@]12[C@@H]3N[C@@H]3CN1C1=C(C(=O)C(NCCc3ccccn3)=C(C)C1=O)[C@@H]2COC(N)=O,T/C,"dose: 6.25 mg/kg/injection, schedule: Q04DX003 (ip), vehicle: saline with Tween-80",-51 % of control
same,T/C,"dose: 12.5 mg/kg/injection, schedule: Q04DX003 (ip), vehicle: saline with Tween-80",-84 % of control
same,T/C,"dose: 25.0 mg/kg/injection, schedule: Q04DX003 (ip), vehicle: saline with Tween-80",-92 % of control
same,T/C,[1],-42 % of control
NNC(=S)N/N=C/c1ccccn1,T/C,"dose: 15.0 mg/kg/injection, schedule: Q04DX003 (sc), vehicle: saline with Tween-80",116 % of control
same,T/C,"dose: 30.0 mg/kg/injection, schedule: Q04DX003 (sc), vehicle: saline with Tween-80",96 % of control
same,T/C,"dose: 60.0 mg/kg/injection, schedule: Q04DX003 (sc), vehicle: saline with Tween-80",123 % of control
O=C[C@@H](CO)O[C@H](C=O)n1cnc2c(=O)[nH]cnc21,T/C,"dose: 100.0 mg/kg/injection, schedule: Q04DX003 (sc), vehicle: saline with Tween-80",73 % of control
same,T/C,"dose: 200.0 mg/kg/injection, schedule: Q04DX003 (sc), vehicle: saline with Tween-80",35 % of control
same,T/C,"dose: 400.0 mg/kg/injection, schedule: Q04DX003 (sc), vehicle: saline with Tween-80",-63 % of control
COc1ccc([C@@]23Oc4cc(OC)cc(OC)c4[C@]2(O)[C@H](O)[C@H](C(=O)N(C)C)[C@H]3c2ccccc2)cc1,T/C,"dose: 2.0 mg/kg/injection, schedule: Q04DX003 (ip), vehicle: Klucel (hydroxypropylcellulose) (HPC)",92 % of control
same,T/C,"dose: 4.0 mg/kg/injection, schedule: Q04DX003 (ip), vehicle: Klucel (hydroxypropylcellulose) (HPC)",79 % of control
same,T/C,"dose: 8.0 mg/kg/injection, schedule: Q04DX003 (ip), vehicle: Klucel (hydroxypropylcellulose) (HPC)",79 % of control
same,T/C,"dose: 16.0 mg/kg/injection, schedule: Q04DX003 (ip), vehicle: Klucel (hydroxypropylcellulose) (HPC)",88 % of control
COC(=O)NC1C(C)OC(OC2C/C=C(/C)C3C=CC4C(OC5CC(OC6CC(OC7CC(O)C(O)C(C)O7)C(OC7CC(O)C(OC)C(C)O7)C(C)O6)C(O)C(C)O5)C(C)CC(C)C4C3(C)/C(O)=C3\C(=O)OC4(CC(C)C(CO)=CC4/C=C\2C)C3=O)CC1(C)[N+](=O)[O-] (stereo not given),T/C,"dose: 75.0 mg/kg/injection, schedule: Q04DX003 (ip), vehicle: water",198 % of control
same,T/C,"dose: 150.0 mg/kg/injection, schedule: Q04DX003 (ip), vehicle: water",120 % of control
same,T/C,"dose: 300.0 mg/kg/injection, schedule: Q04DX003 (ip), vehicle: water",73 % of control
CCCC(=O)OCc1cc(=O)n(C)c2c3c4c(cc12)c(C)cc(=O)n4CO3,T/C,"dose: 50.0 mg/kg/injection, schedule: Q01DX010 (sc), vehicle: Klucel (hydroxypropylcellulose) (HPC)",79 % of control
same,T/C,"dose: 100.0 mg/kg/injection, schedule: Q01DX010 (sc), vehicle: Klucel (hydroxypropylcellulose) (HPC)",75 % of control
same,T/C,"dose: 200.0 mg/kg/injection, schedule: Q01DX010 (sc), vehicle: Klucel (hydroxypropylcellulose) (HPC)",64 % of control
same,T/C,"dose: 400.0 mg/kg/injection, schedule: Q01DX010 (sc), vehicle: Klucel (hydroxypropylcellulose) (HPC)",66 % of control
same,T/C,"dose: 800.0 mg/kg/injection, schedule: Q01DX010 (sc), vehicle: Klucel (hydroxypropylcellulose) (HPC)",61 % of control
CC(=O)CC(=O)CCC(=O)O,T/C,"dose: 300.0 mg/kg/injection, schedule: Q04DX003 (sc), vehicle: saline",88 % of control
same,T/C,"dose: 1200.0 mg/kg/injection, schedule: Q04DX003 (sc), vehicle: saline",78 % of control
O=C1N[C@H]2[C@H](O)[C@H](O)[C@@H](O)[C@H](O)[C@@H]2c2cc3c(c(O)c21)OCO3,T/C,"dose: 12.5 mg/kg/injection, schedule: Q04DX003 (ip), vehicle: saline + alcohol",72 % of control
CCc1nc(N)nc(N)c1-c1ccc(Cl)c([N+](=O)[O-])c1,T/C,"dose: 18.75 mg/kg/injection, schedule: Q04DX003 (sc), vehicle: saline with Tween-80",99 % of control
same,T/C,[2],71 % of control
same,T/C,[3],82 % of control
NC1(C(=O)O)CCCC1,T/C,"dose: 25.0 mg/kg/injection, schedule: Q01DX010 (sc), vehicle: saline",73 % of control
same,T/C,"dose: 50.0 mg/kg/injection, schedule: Q01DX010 (sc), vehicle: saline",31 % of control
O=c1[nH]cc(F)c(=O)[nH]1,T/C,"dose: 50.0 mg/kg/injection, schedule: Q04DX003 (ip), vehicle: saline",43 % of control
CC1(C)Nc2cc3c(cc2-n2cccc21)oc1ccccc13,T/C,"dose: 150.0 mg/kg/injection, schedule: Q04DX003 (ip), vehicle: DMSO",113 % of control
same,T/C,"dose: 300.0 mg/kg/injection, schedule: Q04DX003 (ip), vehicle: DMSO",90 % of control
same,T/C,"dose: 600.0 mg/kg/injection, schedule: Q04DX003 (ip), vehicle: DMSO",83 % of control
same,T/C,"dose: 1200.0 mg/kg/injection, schedule: Q04DX003 (ip), vehicle: DMSO",80 % of control
